Results: BigSolDB 2.1

SMILES: CCn1c2ccccc2c2cc(-n3nncc3-c3ccccc3)ccc21
- solubility (mole fraction) (in acetonitrile, 278.15 K): 0.00173
- solubility (mole fraction) (in acetonitrile, 283.15 K): 0.0022
- solubility (mole fraction) (in acetonitrile, 288.15 K): 0.00272
- solubility (mole fraction) (in acetonitrile, 293.15 K): 0.00336
- solubility (mole fraction) (in acetonitrile, 298.15 K): 0.00412
- solubility (mole fraction) (in acetonitrile, 303.15 K): 0.00505
- solubility (mole fraction) (in acetonitrile, 308.15 K): 0.00609
- solubility (mole fraction) (in acetonitrile, 313.15 K): 0.00733
- solubility (mole fraction) (in acetonitrile, 318.15 K): 0.00897
- solubility (mole fraction) (in acetonitrile, 323.15 K): 0.011
- solubility (mole fraction) (in ethanol, 278.15 K): 0.000446
- solubility (mole fraction) (in ethanol, 283.15 K): 0.000546
- solubility (mole fraction) (in ethanol, 288.15 K): 0.000674
- solubility (mole fraction) (in ethanol, 293.15 K): 0.00084
- solubility (mole fraction) (in ethanol, 298.15 K): 0.00102
- solubility (mole fraction) (in ethanol, 303.15 K): 0.00124
- solubility (mole fraction) (in ethanol, 308.15 K): 0.00151
- solubility (mole fraction) (in ethanol, 313.15 K): 0.00183
- solubility (mole fraction) (in ethanol, 318.15 K): 0.0022
- solubility (mole fraction) (in ethanol, 323.15 K): 0.00262
- solubility (mole fraction) (in isopropanol, 278.15 K): 0.000211
- solubility (mole fraction) (in isopropanol, 283.15 K): 0.000278
- solubility (mole fraction) (in isopropanol, 288.15 K): 0.000371
- solubility (mole fraction) (in isopropanol, 293.15 K): 0.000491
- solubility (mole fraction) (in isopropanol, 298.15 K): 0.000639
- solubility (mole fraction) (in isopropanol, 303.15 K): 0.000825
- solubility (mole fraction) (in isopropanol, 308.15 K): 0.00105
- solubility (mole fraction) (in isopropanol, 313.15 K): 0.00135
- solubility (mole fraction) (in isopropanol, 318.15 K): 0.00174
- solubility (mole fraction) (in isopropanol, 323.15 K): 0.00224
- solubility (mole fraction) (in n-propanol, 278.15 K): 0.000523
- solubility (mole fraction) (in n-propanol, 283.15 K): 0.000671
- solubility (mole fraction) (in n-propanol, 288.15 K): 0.000837
- solubility (mole fraction) (in n-propanol, 293.15 K): 0.00103
- solubility (mole fraction) (in n-propanol, 298.15 K): 0.0013
- solubility (mole fraction) (in n-propanol, 303.15 K): 0.00161
- solubility (mole fraction) (in n-propanol, 308.15 K): 0.002
- solubility (mole fraction) (in n-propanol, 313.15 K): 0.00246
- solubility (mole fraction) (in n-propanol, 318.15 K): 0.00297
- solubility (mole fraction) (in n-propanol, 323.15 K): 0.00357
- solubility (mole fraction) (in water, 278.15 K): 5.79e-07
- solubility (mole fraction) (in water, 283.15 K): 7.99e-07
- solubility (mole fraction) (in water, 288.15 K): 1.08e-06
- solubility (mole fraction) (in water, 293.15 K): 1.46e-06
- solubility (mole fraction) (in water, 298.15 K): 1.96e-06
- solubility (mole fraction) (in water, 303.15 K): 2.61e-06
- solubility (mole fraction) (in water, 308.15 K): 3.4e-06
- solubility (mole fraction) (in water, 313.15 K): 4.49e-06
- solubility (mole fraction) (in water, 318.15 K): 5.81e-06
- solubility (mole fraction) (in water, 323.15 K): 7.48e-06
